# Values quoted from earlier work, collected in patent publication US20030171329A1, “Stable compositions comprising tezacitabine” (priority 2002, published 2003).
# Read-outs that look alike come from different tables or passages of the source.
# Key:
# ribonucleotide reductase = target: T1, ribonucleotide reductase (Homo sapiens, UniProt P23921); details: cited from earlier work
# T1 sequence (P23921 1-792): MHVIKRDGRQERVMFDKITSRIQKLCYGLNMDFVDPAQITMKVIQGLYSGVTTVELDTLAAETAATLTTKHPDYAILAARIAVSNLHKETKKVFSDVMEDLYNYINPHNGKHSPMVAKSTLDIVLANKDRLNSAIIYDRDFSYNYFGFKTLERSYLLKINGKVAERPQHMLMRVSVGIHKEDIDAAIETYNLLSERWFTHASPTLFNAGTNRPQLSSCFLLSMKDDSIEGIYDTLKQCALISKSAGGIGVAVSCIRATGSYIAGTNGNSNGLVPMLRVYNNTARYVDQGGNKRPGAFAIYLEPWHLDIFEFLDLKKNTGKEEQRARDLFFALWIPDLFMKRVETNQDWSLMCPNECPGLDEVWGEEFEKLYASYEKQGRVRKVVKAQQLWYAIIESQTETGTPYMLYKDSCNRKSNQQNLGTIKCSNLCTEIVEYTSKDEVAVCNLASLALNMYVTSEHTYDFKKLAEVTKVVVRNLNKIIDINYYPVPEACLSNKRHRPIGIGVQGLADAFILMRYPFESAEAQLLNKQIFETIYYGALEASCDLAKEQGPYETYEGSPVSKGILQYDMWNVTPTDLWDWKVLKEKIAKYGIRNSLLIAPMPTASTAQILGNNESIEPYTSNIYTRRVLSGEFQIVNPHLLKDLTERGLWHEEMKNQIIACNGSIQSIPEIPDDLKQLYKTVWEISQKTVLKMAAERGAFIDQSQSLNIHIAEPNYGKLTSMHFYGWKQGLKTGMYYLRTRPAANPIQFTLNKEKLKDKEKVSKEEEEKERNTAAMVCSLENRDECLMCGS
# T1 sequence (P31350 1-389 partner): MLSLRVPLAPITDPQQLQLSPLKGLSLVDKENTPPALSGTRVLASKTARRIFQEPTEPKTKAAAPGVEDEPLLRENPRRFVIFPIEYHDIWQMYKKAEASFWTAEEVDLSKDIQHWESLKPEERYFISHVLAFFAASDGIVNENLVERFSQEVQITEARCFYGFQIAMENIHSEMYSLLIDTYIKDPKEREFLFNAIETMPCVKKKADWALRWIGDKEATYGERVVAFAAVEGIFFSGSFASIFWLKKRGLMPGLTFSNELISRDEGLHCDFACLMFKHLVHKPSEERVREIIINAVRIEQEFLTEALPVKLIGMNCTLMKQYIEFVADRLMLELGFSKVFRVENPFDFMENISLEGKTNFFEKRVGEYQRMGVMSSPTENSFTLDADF
# [1] = cited from earlier work
# [2] = test system: replicating strand of DNA; details: incorporated directly into the replicating strand of DNA; cited from earlier work
structure (smiles),measurement,setting,value
Nc1ccn(C2OC(COP(=O)(O)OP(=O)(O)O)C(O)C2=CF)c(=O)n1 (centres unmarked) [tezacitabine diphosphate],effect on ribonucleotide reductase,ribonucleotide reductase,inhibits ribonucleotide reductase
Nc1ccn([C@@H]2O[C@H](CO)[C@@H](O)C2(F)F)c(=O)n1 [Gemcitabine],stability in words,[1]; acid conditions (low pH),relatively stable
same,stability in words,[1]; high pH,considerably less stable
Nc1ccn(C2OC(COP(=O)(O)OP(=O)(O)OP(=O)(O)O)C(O)C2=CF)c(=O)n1 (centres unmarked) [tezacitabine triphosphate],effect on DNA synthesis,[2],causes premature chain termination
Nc1ccn([C@@H]2O[C@H](CO)[C@@H](O)[C@@H]2O)c(=O)n1 [Cytarabine],pH of best stability,[1]; aqueous solution,most stable at neutral pH (7-8)
